Source: article PMC7794356, “Streamlined copper defenses make Bordetella pertussis reliant on custom-made operon” (Communications Biology, 2021)

Biological target: GorB (BP1729) (Bordetella pertussis, UniProt Q7VXM2)
Test: NADPH oxidation followed at […] nm
Type: biochemical
Details: 0.3 mM NADPH, 8 mM GSH; GSSG generated in situ from GSH by H2O2 (0.1-2 mM); 0.1 M sodium/potassium phosphate pH 7.6, 25 °C

GorB (BP1729), sequence (Q7VXM2 entry or part of it): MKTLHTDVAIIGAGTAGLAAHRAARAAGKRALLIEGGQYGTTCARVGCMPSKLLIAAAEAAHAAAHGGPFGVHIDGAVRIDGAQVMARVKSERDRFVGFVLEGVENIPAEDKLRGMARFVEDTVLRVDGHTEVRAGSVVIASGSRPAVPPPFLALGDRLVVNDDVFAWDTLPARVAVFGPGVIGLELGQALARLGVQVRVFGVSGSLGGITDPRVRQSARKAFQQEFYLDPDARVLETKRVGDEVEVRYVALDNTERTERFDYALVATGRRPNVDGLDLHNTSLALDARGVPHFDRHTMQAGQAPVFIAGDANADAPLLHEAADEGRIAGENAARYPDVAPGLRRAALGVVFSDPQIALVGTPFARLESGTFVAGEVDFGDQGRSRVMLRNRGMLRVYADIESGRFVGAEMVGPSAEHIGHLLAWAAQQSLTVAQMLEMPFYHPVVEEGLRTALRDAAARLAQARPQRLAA

NC(=O)C1=CN([C@@H]2O[C@H](COP(=O)(O)OP(=O)(O)OC[C@H]3O[C@@H](n4cnc5c(N)ncnc54)[C@H](OP(=O)(O)O)[C@@H]3O)[C@@H](O)[C@H]2O)C=CC1 [NADPH]
NADPH oxidation followed at 340 nm: Oxidation of NADPH by recombinant GorB over time
